We go through 25 compounds from ChEMBL document CHEMBL1201862, “PubChem BioAssay data set” (2004).

Assay [1] concerns the target T1, Heat shock factor protein 1 (Mus musculus, UniProt P38532).
T1 sequence (P38532 whole entry): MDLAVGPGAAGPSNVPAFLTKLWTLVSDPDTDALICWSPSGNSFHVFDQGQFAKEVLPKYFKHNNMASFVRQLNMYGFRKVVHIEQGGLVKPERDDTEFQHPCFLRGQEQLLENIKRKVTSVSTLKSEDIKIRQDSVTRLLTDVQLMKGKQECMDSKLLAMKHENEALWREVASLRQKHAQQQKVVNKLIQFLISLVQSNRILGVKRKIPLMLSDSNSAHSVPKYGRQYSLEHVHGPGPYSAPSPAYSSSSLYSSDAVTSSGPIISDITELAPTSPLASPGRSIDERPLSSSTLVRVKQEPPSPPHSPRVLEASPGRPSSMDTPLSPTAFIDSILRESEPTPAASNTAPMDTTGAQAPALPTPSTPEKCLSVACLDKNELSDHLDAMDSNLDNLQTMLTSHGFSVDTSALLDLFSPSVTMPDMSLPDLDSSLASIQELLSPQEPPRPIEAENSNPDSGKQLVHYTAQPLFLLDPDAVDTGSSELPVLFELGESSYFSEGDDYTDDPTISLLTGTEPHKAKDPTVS
In words: decrease of HSF1-responsive luciferase luminescence – cell-based, NIH3T3, dose retest, confirmation (AID 2382).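 Further: NIH3T3 fibroblasts with HSF1-driven luciferase reporter stressed by proteasome inhibitor MG132; luminescence from HSF1-driven luciferase expression after 8 hours of MG132 stress.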 The assay is classed as functional.

The next assay concerns H9c2. In words: cells. The assay is classed as functional, cell-based. The note with it: Rattus norvegicus, H9c2, Myocardium.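 Further: confirmatory concentration-response retest of ultra-high-throughput screening hits for modulation of myocardial damage; cell death induced by hydrogen peroxide oxidative stress; compound pretreatment for 60 min then peroxide exposure for 2 h; potency is for protecting the cells against peroxide damage rather than for killing them.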
Assay [2] in a line: Trypanosoma cruzi growth suppression in host cells – NIH3T3 host cells, beta-gal luminescence, confirmation (AID 2044).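 Further: intracellular parasites grown in NIH/3T3 mouse fibroblasts as host cells; luminescent beta-galactosidase reporter signal from transgenic T. cruzi replicating inside host cells; inhibitors lower the luminescence signal.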 The assay is classed as functional, cell-based.
The nature of assay [3]: NIH3T3 cell viability loss – ATP luminescence, mouse fibroblasts, counter-screen, dose response (AID 2010).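 Further: cells exposed to compound for about 90 hours before reading.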 The assay is classed as functional, cell-based.
Assay [4] has as its target T2, Ubiquitin-conjugating enzyme E2 N (Homo sapiens, UniProt P61088).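 Further: Dose-response confirmation in a TR-FRET assay detecting UBC13-driven polyubiquitin chain formation, inhibition measured.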
T2 sequence (P61088 whole entry): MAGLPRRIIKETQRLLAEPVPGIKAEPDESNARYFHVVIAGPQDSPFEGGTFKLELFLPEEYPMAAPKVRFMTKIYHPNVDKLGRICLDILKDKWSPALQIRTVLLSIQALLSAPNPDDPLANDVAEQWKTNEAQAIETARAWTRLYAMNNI
The assay is classed as functional.

Another assay deals with T3, Protein skinhead-1 (Caenorhabditis elegans, UniProt P34707).
T3 sequence (P34707 whole entry): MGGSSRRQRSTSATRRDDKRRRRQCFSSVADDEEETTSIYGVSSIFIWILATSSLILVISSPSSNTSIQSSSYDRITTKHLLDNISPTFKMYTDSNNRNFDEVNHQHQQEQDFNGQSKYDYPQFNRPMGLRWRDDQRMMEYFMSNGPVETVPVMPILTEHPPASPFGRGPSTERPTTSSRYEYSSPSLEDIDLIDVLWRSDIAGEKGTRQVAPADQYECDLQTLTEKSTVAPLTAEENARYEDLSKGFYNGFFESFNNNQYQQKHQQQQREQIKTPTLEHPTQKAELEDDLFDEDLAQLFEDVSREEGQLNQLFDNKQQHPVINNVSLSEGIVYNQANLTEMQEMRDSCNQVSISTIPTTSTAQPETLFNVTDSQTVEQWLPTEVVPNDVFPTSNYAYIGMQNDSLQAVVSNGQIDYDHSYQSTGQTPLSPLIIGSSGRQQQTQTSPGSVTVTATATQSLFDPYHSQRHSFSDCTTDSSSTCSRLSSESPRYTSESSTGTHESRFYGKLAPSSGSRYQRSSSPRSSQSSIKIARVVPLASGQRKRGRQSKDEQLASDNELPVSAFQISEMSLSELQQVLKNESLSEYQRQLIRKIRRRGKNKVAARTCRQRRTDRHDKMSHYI
The assay is classed as functional.

The target of assay [5] is Luciferin 4-monooxygenase (Photinus pyralis, UniProt P08659). In words: inhibition of purified Photinus pyralis luciferase – biochemical, luminescence, dose response (AID 1891).
Luciferin 4-monooxygenase, sequence (P08659 whole entry): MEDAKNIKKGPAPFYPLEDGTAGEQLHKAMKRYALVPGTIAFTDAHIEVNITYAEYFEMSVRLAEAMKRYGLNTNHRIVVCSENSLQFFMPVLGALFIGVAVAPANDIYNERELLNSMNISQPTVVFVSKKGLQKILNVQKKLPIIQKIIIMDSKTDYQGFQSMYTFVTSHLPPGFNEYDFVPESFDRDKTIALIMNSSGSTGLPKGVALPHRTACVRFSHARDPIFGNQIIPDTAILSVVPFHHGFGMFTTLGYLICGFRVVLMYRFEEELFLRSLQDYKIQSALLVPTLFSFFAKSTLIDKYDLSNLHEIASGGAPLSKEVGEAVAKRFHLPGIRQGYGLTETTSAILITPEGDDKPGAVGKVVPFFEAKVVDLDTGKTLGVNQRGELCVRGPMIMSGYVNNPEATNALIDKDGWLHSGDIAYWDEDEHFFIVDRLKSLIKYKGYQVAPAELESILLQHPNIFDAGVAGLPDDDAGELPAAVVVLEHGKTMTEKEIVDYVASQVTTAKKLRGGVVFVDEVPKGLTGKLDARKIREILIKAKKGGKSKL
Assay [6] can be described thus: Luminescence Cell-Based Dose Confirmation HTS to Identify Inhibitors of Platelet Dense Granule Release. [Related pubchem assays: 1663 (Primary HTS), 1678 (Summary of Project)]. The assay is classed as functional.
Assay [7] is described as follows: viability of PTEN-deleted HCT116 cells – cell-based, HCT116 PTEN knockout, dose response (AID 1047).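 Further: HCT116 colon tumor cells with PTEN knocked out; cells exposed to compound for 60 hours before readout; potency for loss of cell viability measured by luminescence.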 The assay is classed as functional.
In the next assay the test system is INS1. In words: INS-1E survival protection against cytokine death – cell-based, luminescence, retest, dose response (AID 449756).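 Further: cell death triggered by IL-1 beta plus TNF-alpha plus IFN-gamma mixture; protective hits raise ATP signal compared with cytokine alone wells.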 The assay is classed as functional. The note with it: Rattus norvegicus.
The target of assay [8] is T4, Rac GTPase-activating protein 1 (Homo sapiens, UniProt Q9H0H5).
T4 sequence (Q9H0H5 whole entry): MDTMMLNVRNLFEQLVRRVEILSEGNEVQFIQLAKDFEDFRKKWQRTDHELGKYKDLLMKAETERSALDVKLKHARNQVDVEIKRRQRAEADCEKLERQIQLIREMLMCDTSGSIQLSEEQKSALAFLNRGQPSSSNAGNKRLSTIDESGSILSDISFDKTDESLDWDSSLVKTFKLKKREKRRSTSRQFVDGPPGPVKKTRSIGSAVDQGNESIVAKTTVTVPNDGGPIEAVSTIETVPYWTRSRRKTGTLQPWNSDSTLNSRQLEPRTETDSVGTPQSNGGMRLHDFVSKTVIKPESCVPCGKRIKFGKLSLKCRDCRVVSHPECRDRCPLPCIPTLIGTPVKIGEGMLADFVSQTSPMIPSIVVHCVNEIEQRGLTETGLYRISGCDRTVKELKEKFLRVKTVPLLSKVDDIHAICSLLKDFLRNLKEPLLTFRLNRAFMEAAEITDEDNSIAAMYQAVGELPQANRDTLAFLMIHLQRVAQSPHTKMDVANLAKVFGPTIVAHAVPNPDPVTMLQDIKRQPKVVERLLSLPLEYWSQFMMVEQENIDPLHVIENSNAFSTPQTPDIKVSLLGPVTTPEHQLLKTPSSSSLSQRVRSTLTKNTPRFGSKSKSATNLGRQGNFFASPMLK
In words: blockers of MgcRacGAP-driven Rac1 GTP hydrolysis – biochemical, ADP Hunter fluorescence, primary and confirmatory, confirmation (AID 624330). The assay is classed as functional.

Another assay deals with Paired box protein Pax-8 (Homo sapiens, UniProt Q06710). In words: PAX8 transcriptional activity inhibition in RMG-I – RMG-I cells, luciferase, cherry-pick, dose response (AID 687027).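 Further: luciferase reporter driven by Pax8 target thyroperoxidase promoter measured by SteadyGlo luminescence.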 The assay is classed as functional, cell-based.
Paired box protein Pax-8, sequence (Q06710 whole entry): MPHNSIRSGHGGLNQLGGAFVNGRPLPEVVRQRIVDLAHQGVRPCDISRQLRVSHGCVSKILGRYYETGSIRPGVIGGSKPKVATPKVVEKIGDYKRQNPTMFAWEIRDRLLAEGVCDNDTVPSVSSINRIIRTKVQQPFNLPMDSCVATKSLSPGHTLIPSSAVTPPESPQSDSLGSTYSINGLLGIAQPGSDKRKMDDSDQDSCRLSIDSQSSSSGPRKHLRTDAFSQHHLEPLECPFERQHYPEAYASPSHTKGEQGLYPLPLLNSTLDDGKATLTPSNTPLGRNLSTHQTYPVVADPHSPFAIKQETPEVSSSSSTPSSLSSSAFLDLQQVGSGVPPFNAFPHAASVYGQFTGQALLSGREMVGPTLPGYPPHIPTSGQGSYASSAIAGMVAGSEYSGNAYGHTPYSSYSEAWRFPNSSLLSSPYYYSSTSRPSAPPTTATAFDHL

Broadly, the EC50 is the concentration needed to bring the measured effect to its halfway point. As usually defined, the IC50 is the concentration at which inhibition is half-maximal. By AC50 is commonly meant the concentration at which the activity in the assay is half-maximal.

Active and inactive are the calls of the source.

As to `NS(=O)(=O)c1ccc(CCNC(=O)c2ccc(C#CC3(O)CCCCC3)cc2)cc1`, the EC50 in [1] is 7.97 µM (active). The IC50 in the assay with H9c2 is > 79 µM (inactive).

With `CCN(CC)CCNC(=O)c1cc2c(s1)-c1ccccc1SC2`, the EC50 in assay [2] is 2.27 µM (active); in [3] it was 7.38 µM (active). In addition, the IC50 in assay [4] was > 20 µM (inactive).

Regarding `COCCn1c(CCC(=O)O)nc2c1c(=O)[nH]c(=O)n2CC(C)C`, at Protein skinhead-1, the IC50 is > 100 µM (inactive).

Consider `CCOC(=O)C1=C(c2ccccc2)O/C(=C(/C(=O)OC)C(F)(F)F)S1`, for which the IC50 in assay [4] was > 20 µM (inactive).

With `COc1cc2[nH]c(=S)n(CCN3CCCCC3C)c(=O)c2cc1OC` (configuration not stated), the IC50 on Protein skinhead-1 is > 100 µM (inactive).

On to `CCOc1ccc(CCNC(=O)c2oc3c(c2C)-c2n[nH]cc2CC3)cc1OCC`, for which the EC50 in assay [5] and in [6] was > 112 µM (not active) each time.

As for `Cc1c(C2=CCN(S(=O)(=O)c3ccc(Cl)cc3)CC2)c2ccccc2n1C`, at Protein skinhead-1, the IC50 is > 100 µM (inactive).

In the case of `CC(C)CCCCCCN=C(S)Nc1ccc(S(=O)(=O)N2CCOCC2)cc1`, the EC50 in [7] was 77 µM (active). In the assay on INS1, the AC50 is 7.7 µM (active).

Consider `COc1ccc(NS(=O)(=O)c2cccc(-c3nnc(-c4ccccc4)o3)c2)cc1`, for which the IC50 on Protein skinhead-1 is > 100 µM (inactive).

On to `COc1ccc(C(O)CNc2ccc(C)cc2)cc1` (configuration not stated), for which, at Protein skinhead-1, the IC50 is > 100 µM (inactive).

As to `CCCc1cc(C(=O)Nc2ccc(Cl)cn2)cs1`, the IC50 on Protein skinhead-1 was > 100 µM (inactive).

Consider `CCC1CCCN1Cn1cnc2c3cc(Cl)ccc3nc-2c1O` (configuration not stated), for which the EC50 in assay [5] was > 112 µM (not active); in assay [6], 48.3 µM (active).

In the case of `COc1ccc(CCNC(=O)Cn2c(=O)n(-c3ccc(C)c(F)c3)c(=O)c3sccc32)cc1OC`, the IC50 in [4] is > 20 µM (inactive).

`CCOC(=O)C1CCN(C(=O)c2ccc3c(c2)S(=O)(=O)c2ccccc2C3=O)CC1`: the IC50 on Protein skinhead-1 was > 100 µM (inactive).

Regarding `COc1ccc(C(=O)Nc2ccc3oc(-c4cccc(F)c4)nc3c2)cc1OC`, the IC50 in [4] is > 20 µM (inactive).

Turning to `O=C(CN(c1cccc([N+](=O)[O-])c1)S(=O)(=O)c1ccccc1)NCc1ccccc1`, the results for the EC50 in assay [5] and in assay [6] were > 112 µM (not active) and 46.7 µM (active), respectively.

For `COCCCN(C(=O)Cc1ccc(Cl)c(Cl)c1)c1c(N)n(Cc2ccccc2)c(=O)[nH]c1=O`, the concentration for a half-maximal effect (EC50) in assay [5] and in assay [6] was > 112 µM (not active) throughout.

With `CCN(CC)CCNC(=O)c1cc2c(=O)n(CC)c3ccccc3c2s1`, in [4], the IC50 is > 20 µM (inactive).

For the compound `CCC[C@@H](CN1CCC[C@H]1CN1C(N)=NC[C@@H]1Cc1ccccc1)N1C[C@@H](Cc2ccccc2)N(CCc2ccc(Cl)c(Cl)c2)C1=N`, the IC50 in assay [4] is > 20 µM (inactive).

`Nn1c(=S)[nH]c2sc3c(c2c1=O)CCCC3`: the figures for the IC50 (on Protein skinhead-1; in assay [8]) were > 100 µM (inactive) and 74.3 µM (active), respectively.

As to `O=C1CC(NNC(=O)c2ccc(Br)cc2)C(=O)N1` (configuration not stated), at Protein skinhead-1, the IC50 is > 100 µM (inactive).

As to `Cc1nonc1C(=O)N/N=C/c1cccc(O)c1`, the values for the EC50 in [5] and in assay [6] were 13.5 µM (active) and 4.56 µM (active), respectively.

Consider `O=C(Nc1ccccc1C(=O)N/N=C/c1ccco1)c1ccc(F)cc1`, for which the half-maximal effective concentration (EC50) was 0.295 µM (active) in assay [5] and 10.4 µM (active) in assay [6].

Take `C[C@H]1CCCCO[C@H](CN(C)C(=O)Nc2ccc(C(F)(F)F)cc2)[C@@H](C)CN([C@@H](C)CO)C(=O)c2cc(NC(=O)c3ccncc3)ccc2O1`: the AC50 at Paired box protein Pax-8 is 17.1 µM (active).

Take `CC/C(=N\NC(=O)Nc1ccccc1)c1ccccc1`: the EC50 in assay [5] and in [6] was > 112 µM (not active) throughout.
